The assay relates to M. tuberculosis H37Rv growth inhibition with meropenem. Put plainly: dose response, H37Rv, with and without meropenem (AID 434987).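 Also: growth over 7 days at 37 °C before Alamar Blue read on day 9.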
Where [1] appears, read: M. tuberculosis H37Rv growth inhibition, measured here: IC50 without meropenem.
The mark [2] stands for this setting: M. tuberculosis H37Rv growth inhibition, measured here: IC90 without meropenem.
Where [3] appears, read: measured here: IC90 with meropenem.

SMILES strings stand for the structures. The source made the active and inactive calls. No rule for the calls is given here.

Consider `O=C(CC(=O)c1ccccc1)Nc1ccc2c(c1)OCCO2`, for which the IC50 was 37.2 µM (inactive). Under setting [1], this compound displayed an IC50 of 78.9 µM. The same compound registered a concentration for an effect of 90% (IC90) under setting [2] greater than 100 µM. The compound further registered an IC90 under setting [3] greater than 100 µM.

With `CC1CCc2c(sc(NC(=O)CCCn3cnc([N+](=O)[O-])n3)c2C(N)=O)C1` (configuration not stated), the IC50 is 12.8 µM. In addition, under setting [1], the IC50 worked out at 32.7 µM. Also, under setting [2], the IC90 is greater than 100 µM. Under setting [3], this compound displayed an IC90 of 90.4 µM.

As to `CC1=Nc2ccccc2/C1=C\c1nc(-c2ccc(F)cc2)oc1O`, the IC50 is 3.73 µM. In addition, under setting [1], the IC50 was found to be 93.7 µM. This compound also came in with an IC90 under setting [2] greater than 100 µM. In addition, under setting [3], the IC90 was greater than 100 µM.

For `Cc1nc(Nc2ccc(Cl)cc2Cl)sc1C(=O)Nc1ccccc1`, the IC50 is > 100 µM (inactive). Also, the IC50 under setting [1] was greater than 100 µM. The compound further showed a 90% effect concentration (IC90) under setting [2] greater than 100 µM. The compound also returned an IC90 under setting [3] greater than 100 µM.

For `O=C(CCCCCN1C(=O)c2cccc([N+](=O)[O-])c2C1=O)Nc1ccccc1F`, the half-maximal inhibitory concentration (IC50) is 10.2 µM. Moreover, under setting [1], the IC50 was greater than 100 µM. Under setting [2], this compound had an IC90 greater than 100 µM. For the same compound, the IC90 under setting [3] is 44.1 µM.

Turning to `CCOc1ccc(NC(=O)/C(C#N)=C/c2cn(CC(=O)O)c3ccccc23)cc1`, the IC50 was 95.9 µM (inactive). The same compound registered an IC50 under setting [1] greater than 100 µM. Further, the 90% effect concentration (IC90) under setting [2] was greater than 100 µM. For the same compound, under setting [3], the IC90 was greater than 100 µM.

`Cc1cc(C)n(-c2nc3ccccc3c(=O)n2OCC(=O)N(C)C)n1`: the half-maximal inhibitory concentration (IC50) was 7.74 µM. The compound further returned an IC50 under setting [1] of 79.2 µM. This compound registered an IC90 under setting [2] greater than 100 µM. The compound further returned an IC90 under setting [3] of 23.3 µM.

On to `COc1ccc(S(=O)(=O)N(C(=O)c2ccncc2)c2ccc3oc4c(c3c2)CCCC4)cc1`, for which the IC50 is 99 µM (inactive). This compound came in with a concentration for half-maximal inhibition (IC50) under setting [1] of 94.7 µM. In addition, under setting [2], the IC90 was greater than 100 µM. The compound further came in with an IC90 under setting [3] greater than 100 µM.

On to `Cc1ccccc1OCC(=O)N/N=C/c1cccc(Oc2ccc([N+](=O)[O-])cc2[N+](=O)[O-])c1`, for which the concentration for half-maximal inhibition (IC50) is 1.14 µM. In addition, the IC50 under setting [1] was 4.24 µM. The IC90 under setting [2] worked out at 47.8 µM. This compound gave an IC90 under setting [3] of 5.4 µM.

As for `O=C(CCC(=O)Nc1ccccc1)NNC(=O)c1ccco1`, the IC50 was > 100 µM (inactive). Further, the IC50 under setting [1] was greater than 100 µM. This compound also displayed a 90% effect concentration (IC90) under setting [2] greater than 100 µM. The same compound returned an IC90 under setting [3] greater than 100 µM.

On to `COc1ccccc1CNC(=O)c1ccc(SC)cc1OC`, for which the IC50 is 49.8 µM (inactive). Further, under setting [1], the IC50 came out at 83.5 µM. This compound also showed an IC90 under setting [2] greater than 100 µM. Under setting [3], this compound displayed an IC90 greater than 100 µM.

As for `C=CCN=c1scc(-c2ccc(F)cc2)n1/N=C/c1ccccn1`, the IC50 is 33 µM. Under setting [1], this compound displayed an IC50 of 92.8 µM. The IC90 under setting [2] was greater than 100 µM. The IC90 under setting [3] came to 71.7 µM.

For `CCCCCC(=O)Nc1cccc(C2=NOC3(C2)C[C@@H](C(N)=O)N(C(=O)CC(c2ccccc2)c2ccccc2)C3)c1` (some centres not stated), the IC50 was 51.6 µM (inactive). Under setting [1], this compound registered an IC50 greater than 100 µM. This compound also came in with an IC90 under setting [2] greater than 100 µM. Also, the IC90 under setting [3] is greater than 100 µM.

Consider `CCNC(=O)CCn1nc(-c2ccc(Cl)cc2)c2ccccc2c1=O`, for which the IC50 is 23.6 µM. Besides, under setting [1], the concentration for half-maximal inhibition (IC50) was greater than 100 µM. In addition, the IC90 under setting [2] is greater than 100 µM. Under setting [3], the IC90 is greater than 100 µM.

With `CNc1ccccc1NC(=O)C1CCCN1C(=O)OCc1ccccc1` (configuration not stated), the IC50 is > 100 µM (inactive). The same compound gave an IC50 under setting [1] greater than 100 µM. Under setting [2], this compound came in with an IC90 greater than 100 µM. The compound further showed a 90% effect concentration (IC90) under setting [3] greater than 100 µM.

Consider `Fc1ccc(NC(=S)NCc2cccs2)cc1`, for which the IC50 is > 100 µM (inactive). The compound also gave a 50% inhibitory concentration (IC50) under setting [1] greater than 100 µM. Besides, the IC90 under setting [2] was greater than 100 µM. The same compound displayed an IC90 under setting [3] greater than 100 µM.

`CCOC(=O)c1c(NC(=S)NC(=O)c2ccc(Cn3cc(Cl)cn3)o2)sc2c1CCC(C)C2` (configuration not stated): the IC50 was > 100 µM (inactive). This compound returned an IC50 under setting [1] greater than 100 µM. This compound also yielded an IC90 under setting [2] greater than 100 µM. Under setting [3], this compound registered an IC90 greater than 100 µM.

On to `O=C(NC1CCCCC1)C1CCN(c2nccs2)CC1`, for which the IC50 was 40.2 µM. The compound further had an IC50 under setting [1] greater than 100 µM. Further, the IC90 under setting [2] was greater than 100 µM. Moreover, the IC90 under setting [3] is greater than 100 µM.

Consider `Cn1c(/C=C/c2ccc(Cl)cc2)nc2ccccc2c1=O`, for which the IC50 is 52.1 µM (inactive). The same compound returned an IC50 under setting [1] greater than 100 µM. In addition, the IC90 under setting [2] is greater than 100 µM. Also, under setting [3], the IC90 is greater than 100 µM.

In the case of `CCc1cc2c(=O)nc3n(c2s1)Cc1ccccc1/C3=C(/O)c1ccc(F)cc1`, the IC50 is > 100 µM (inactive). This compound also displayed an IC50 under setting [1] greater than 100 µM. For the same compound, under setting [2], the IC90 was greater than 100 µM. This compound yielded an IC90 under setting [3] greater than 100 µM.

Consider `C#CCOc1c(Cl)cc(/C=N/NC(N)=S)cc1OCC`, for which the IC50 is 87.6 µM (inactive). This compound also yielded an IC50 under setting [1] greater than 100 µM. The IC90 under setting [2] was greater than 100 µM. The 90% effect concentration (IC90) under setting [3] was greater than 100 µM.

As to `COc1ccc(-c2cc(=Nc3ccc(C)cc3)c3ccccc3o2)cc1`, the IC50 is 78.3 µM (inactive). For the same compound, under setting [1], the IC50 is greater than 100 µM. In addition, the IC90 under setting [2] is greater than 100 µM. The IC90 under setting [3] worked out at 98.3 µM.

For the compound `CCCOc1ccc(C(=O)CCN2CCCCC2)cc1`, the IC50 was 13.4 µM. Moreover, under setting [1], the IC50 came out at 54 µM. Further, the IC90 under setting [2] amounted to 77.1 µM. The compound also registered an IC90 under setting [3] of 36.4 µM.

The values are drawn from PubChem BioAssay AID434987 (Southern Research Specialized Biocontainment Screening …, 2010).
